# Measurements: patent US20250122266A1, “SMART SINGLE-DOMAIN INTRABODIES WITH PRECISION SWITCHES FOR BIOMEDICAL APPLICATIONS” (THE TEXAS A&M UNIVERSITY SYSTEM, priority 2020, published 2025)
# System: Mito-mCh
# Assay: mitochondria (Mito) translocation assay of rapabody and caffebody
# Assay type: cell-based
# Conditions: HeLa cells, GFP-caffebody and Mito-mCh
# Protocol: For ligand-controllable nanobodies rapabody and caffebody, similar imaging and data analysis procedures were used. Transfected HeLa cells were incubated with normal growth media or media supplemented with different concentrations of ligands or diluted beverages as indicated in the figures. Coffees and teas were purchased from Starbucks, while other drinks were purchased from a grocery store.
# The instant example evaluates whether the installation of genetically-encoded chemical switches would likewise enable chemogenetic control of nanobodies. The LOV2 domain in the S3 loop of sunbody was substituted with two ligand-controllable precision switches, UniRapR and a dimeric concatemer of acVHH (2×acVHH; FIG. 23A). UniRapR, engineered from the FKBP-FRB based chemically-inducible dimerization system, has been used to enable rapamycin-induced allosteric control of a wide range of host proteins, including kinases and GTPases. Further, acVHH is known to induce self-dimerization upon addition of caffeine, and thus it was hypothesized to elicit conformational changes when inserted into a host protein as a dimeric concatemer. These intrabody compositions were named “rapabodies” and “caffebodies”, respectively, to reflect the compounds used for chemogenetic manipulation. […]
smiles,measurement,value
Cn1c(=O)c2[nH]cnc2n(C)c1=O [theophylline],activation of caffebody by caffeine analog or beverages,could similarly activate caffebody
